Test results as given in patent US6057371A, “Sigma receptor ligands and the use thereof” (Virginia Commonwealth University, priority 1992, dated 2000).
Read-outs that look alike come from different tables or passages of the source.

How the values were obtained:
[1] = cited, Glennon 1984; cited from earlier work
[2] = system: sigma sites; conditions: cited, cited from earlier work; for affinity for sigma-1 site compared to sigma-2 site: Hellewell and Bowen
[3] = molecular target: sigma receptor; assay: Sigma receptor binding, [^3 H]DTG, brain membranes (both sigma-1 and sigma-2 sites); parameters: species or system guinea pig; conditions: Table 7; Phenyl-(CH2)x -NH--(CH2)y -Phenyl; read-out: Ki
[4] = molecular target: PCP receptor; assay: PCP receptor binding, ^3 H-MK-801; parameters: species or system rat; conditions: Table 4
Procedure: PCP receptor binding assays against ^3 H-MK-801 were conducted as described by Keana et al., Proc. Natl. Acad. Sci (USA) 86: 5631-5635 (1989); Keana et al., Life Sciences 43: 965-973 (1988). For (+) ^3 H-MK-801 binding, 1 nM of radioligand was incubated with about 100 ug of thawed rat brain membrane protein for 4 hr at room temperature. The assays were carried out in 5 mM Tris/acetate and were stopped by rapid filtration through Whatman GF/B or Schleicher & Schuell no. 32 glass fiber filters (presoaked in 0.05% polyethylenamine).

[5] = molecular target: T1, Dopamine D1 receptor (Rattus norvegicus, UniProt P18901); assay: Dopamine D1 receptor binding, [^3 H]SCH-23390, striatal membranes; conditions: Table 4
T1 construct: Rat striatal membranes were prepared from frozen tissue; from tissue; host or cells: rat striatum, frozen tissue
Procedure: (§1) Dopamine D1 and D2 receptor binding assays were performed as described by Billard et al., Life Sci. 35: 1885-1893 (1984) using [^3 H]SCH-23390 for the D1 receptors and [^3 H]domperidone for the D2 receptors (Baudry et al., Arch. Pharmacol. 308: 231-237 (1979).
(§2) Rat striatal membranes were prepared from frozen tissue by Poltron homogenization in 25 volumes of ice cold Tris-EDTA buffer (50 mM Tris-HCl, 1 mM EDTA, pH 7.4 at 4° C.). The homogenate was centrifuged at 48,000× g for 10 min. at 4° C., and the pellet was resuspended in 25 volumes of the same buffer. This suspension was then incubated at 37° C. for 15 min., followed by recentrifugation as before. The resulting pellet was resuspended in 267 volumes of assay buffer (50 mM Tris-HCl, 120 mM NaCl, 5 mM KCl, 2 mM CaCl2, 1 mM MgCl2, pH 7.4 at 37° C.).
(§3) The binding assays were conducted with 100 uL of [^3 H]SCH-23390 or [^3 H]domperidone (to give about 1 nM final), 100 uL of buffer or drug solution, and 800 uL of membrane suspension (to give about 250 ug of striatal membrane protein per assay). The tubes were incubated at 37° C. for 60 min. The assays were stopped by rapid filtration over Schleicher & Schuell #32 or Whatman GF/B glass fiber filters (presoaked in 0.5% polyethyleneimine for [^3 H]domperidone binding), followed by two 3 mL washes of ice cold buffer using a Brandel cell harvester. After vigorous shaking, the filter disks were counted at 52% efficiency in 5 mL of Cytoscint (ICN).

[6] = molecular target: T2, Dopamine D2 receptor (Rattus norvegicus, UniProt P61169); assay: Dopamine D2 receptor binding, [^3 H]domperidone, striatal membranes; conditions: Table 4
T2 construct: Rat striatal membranes were prepared from frozen tissue; from tissue; host or cells: rat striatum, frozen tissue
Procedure: as §1, §2, §3

[7] = molecular target: T3, sigma-1 binding site (Cavia porcellus, UniProt Q60492); assay: biochemical; parameters: species or system guinea pig; conditions: Table 10
T3 construct: Guinea pig whole membrane preparations (P2 microsomal fraction); from tissue; host or cells: guinea pig membranes (P2 microsomal fraction), as described by Weber et al; brain inferred from the sister test b489
Procedure: [^3 H]DTG was purchased from DuPont/NEN.
The radioactivity on the filters was determined by scintillation spectrometry at an efficiency of about 50% using Cytoscint (ICN) scintillation fluid.

[8] = molecular target: T4, sigma-2 binding site (Cavia porcellus, UniProt H0V073); assay: biochemical; parameters: species or system guinea pig
T4 construct: Guinea pig whole membrane preparations (P2 microsomal fraction); from tissue; host or cells: guinea pig membranes (P2 microsomal fraction), as described by Weber et al; brain inferred from the sister test b489
T4 sequence (H0V073 1-176): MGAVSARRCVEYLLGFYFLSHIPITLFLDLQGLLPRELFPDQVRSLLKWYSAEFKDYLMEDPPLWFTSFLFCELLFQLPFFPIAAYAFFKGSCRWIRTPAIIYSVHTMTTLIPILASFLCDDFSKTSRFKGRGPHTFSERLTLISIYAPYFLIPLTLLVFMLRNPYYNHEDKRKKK
Procedure: For the standard equilibrium assay, the mixtures were incubated for 30 min. at room temperature, then filtered and the radioactivity determined as described above.

[9] = molecular target: T5, 5-HT1A receptor (Rattus norvegicus, UniProt P19327); assay: biochemical; assay type: binding; parameters: 47: 529-540 (1986); from tissue; host or cells: brain tissue, inferred from the cited method (rat frontal cortex); conditions: Table 5
T5 sequence (P19327 1-422): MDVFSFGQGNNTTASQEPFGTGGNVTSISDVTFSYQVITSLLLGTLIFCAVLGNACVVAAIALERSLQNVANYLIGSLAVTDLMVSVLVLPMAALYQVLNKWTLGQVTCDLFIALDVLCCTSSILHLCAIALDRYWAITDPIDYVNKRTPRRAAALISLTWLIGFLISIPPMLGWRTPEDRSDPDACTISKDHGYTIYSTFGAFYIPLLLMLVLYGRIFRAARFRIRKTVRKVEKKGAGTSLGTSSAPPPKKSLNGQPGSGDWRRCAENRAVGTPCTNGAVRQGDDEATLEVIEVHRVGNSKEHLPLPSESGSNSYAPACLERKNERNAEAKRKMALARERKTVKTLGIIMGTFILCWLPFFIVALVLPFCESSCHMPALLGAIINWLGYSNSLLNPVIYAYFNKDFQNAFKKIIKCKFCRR
Procedure: Further sigma receptor binding assays against [^3 H]DTG and 5HT-1A binding assays were conducted according to the procedure outlined in the previous examples.

T3 sequence (Q60492 whole entry): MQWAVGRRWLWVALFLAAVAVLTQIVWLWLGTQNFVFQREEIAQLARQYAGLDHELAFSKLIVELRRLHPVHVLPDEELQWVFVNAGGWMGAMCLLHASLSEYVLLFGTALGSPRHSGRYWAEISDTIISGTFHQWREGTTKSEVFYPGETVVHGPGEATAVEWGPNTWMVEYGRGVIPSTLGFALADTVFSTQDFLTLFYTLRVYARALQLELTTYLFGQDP
T1 sequence (P18901 whole entry): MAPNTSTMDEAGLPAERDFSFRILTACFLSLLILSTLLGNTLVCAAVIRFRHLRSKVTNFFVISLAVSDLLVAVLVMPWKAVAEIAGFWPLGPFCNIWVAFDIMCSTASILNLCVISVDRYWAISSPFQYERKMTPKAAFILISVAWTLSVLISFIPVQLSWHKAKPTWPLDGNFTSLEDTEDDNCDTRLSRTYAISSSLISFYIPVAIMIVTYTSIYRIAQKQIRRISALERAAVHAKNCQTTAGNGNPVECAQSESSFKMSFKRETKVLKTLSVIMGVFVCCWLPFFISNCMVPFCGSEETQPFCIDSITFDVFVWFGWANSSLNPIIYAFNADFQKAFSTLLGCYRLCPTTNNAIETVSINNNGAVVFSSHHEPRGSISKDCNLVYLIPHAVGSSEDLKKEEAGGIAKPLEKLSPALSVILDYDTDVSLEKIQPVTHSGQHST
T2 sequence (P61169 whole entry): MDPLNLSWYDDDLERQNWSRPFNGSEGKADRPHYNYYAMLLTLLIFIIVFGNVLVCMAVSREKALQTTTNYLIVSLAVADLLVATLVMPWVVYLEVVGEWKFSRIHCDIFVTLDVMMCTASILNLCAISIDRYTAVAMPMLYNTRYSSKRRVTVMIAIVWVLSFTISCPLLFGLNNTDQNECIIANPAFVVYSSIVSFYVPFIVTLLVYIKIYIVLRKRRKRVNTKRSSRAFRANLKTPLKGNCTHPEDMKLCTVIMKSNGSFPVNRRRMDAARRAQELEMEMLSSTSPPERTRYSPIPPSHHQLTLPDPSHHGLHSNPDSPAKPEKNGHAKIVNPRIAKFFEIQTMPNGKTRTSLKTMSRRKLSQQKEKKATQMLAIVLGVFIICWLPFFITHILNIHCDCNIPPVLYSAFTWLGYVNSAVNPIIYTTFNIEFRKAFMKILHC

**Q.** Which “effectiveness vs. racemic amphetamine” value [1] does the source give for `NC1CCc2ccccc2C1` (centres unmarked) [2-aminotetralin] here?
**A.** about one-half as effective as racemic amphetamine

**Q.** Which “affinity for sigma-1 site compared to sigma-2 site” value [2] does the source give for `CC(C)=CCN1CCC2(C)c3cc(O)ccc3CC1C2C` (single isomer, unassigned; (+)) [(+)Pentazocine] here?
**A.** nearly two orders of magnitude higher affinity for the sigma-1 site compared to the sigma-2 site

**Q.** Which Ki [3] does the source give for `c1ccc(CCCNCCCc2ccccc2)cc1` [Compound 15, Di-(3-phenylpropyl)-amine] here?
**A.** 0.014 µM

**Q.** And the IC50 [4]?
**A.** > 10 µM

**Q.** What about the IC50 [5] of the same molecule?
**A.** > 10 µM

**Q.** And the IC50 [6]?
**A.** 1.68 ± 3.6 µM

**Q.** What about the Ki ([7]; read-out: SIGMA-1 KI vs. 3H-PENTAZOCINE MEAN) of the same molecule?
**A.** 0.0114 µM

**Q.** And the “S1/S2 Ratio” value ([7]; sigma-1/sigma-2)?
**A.** .178

**Q.** What about the Ki ([8]; Table 10, read-out: SIGMA-2 KI vs. 3H-DTG + PENTAZOCINE MEAN) of the same molecule?
**A.** 0.0639 µM

**Q.** What about the “Ratio 5-HT1A /σ” value [9] of the same molecule?
**A.** 2

**Q.** And the IC50 ([9]; read-out: 5-HT1A IC50)?
**A.** 0.0307 µM

**Q.** What does the source list for `C=CCN1CC[C@]2(C)c3cc(O)ccc3C[C@H]1[C@H]2C` [(+)SKF 10047, reference compound]?
**A.** Ki ([8]; SIGMA-2 KI vs. 3H-DTG + PENTAZOCINE MEAN): 16.2 µM; affinity for sigma-1 site compared to sigma-2 site [2]: nearly two orders of magnitude higher affinity for the sigma-1 site compared to the sigma-2 site

**Q.** With `O=C(CCCN1CCC(O)(c2ccc(Cl)cc2)CC1)c1ccc(F)cc1` [Haloperidol] as the molecule, how does the “affinity for sigma sites vs. N-allyl normetrazocine (NANM)” value ([2]; Tam 1984) read?
**A.** approximately 100 fold
